Legend:
HCV NS5B = target: T1, HCV NS5B (Hepatitis C virus genotype 1b, UniProt Q9WMX2); assay: HCV NS5B RdRp enzyme assay (standard / modified); type: biochemical; details: HCV RdRp genotype 1b; standard or modified assay not specified; read-out: IC50
T1 construct: The protein was expressed with an 18 amino acid C-terminal truncation to enhance the solubility; made in house; host or cells: E. coli BL21(DE3)
Description: HCV NS5B RdRp cloning, expression, and purification. The cDNA encoding the NS5B protein of HCV, genotype 1b, was cloned into the pET21a expression vector. The protein was expressed with an 18 amino acid C-terminal truncation to enhance the solubility. The E. coli competent cell line BL21(DE3) was used for expression of the protein. Cultures were grown at 37° C. for ˜4 hours until the cultures reached an optical density of 2.0 at 600 nm. The cultures were cooled to 20° C. and induced with 1 mM IPTG. Fresh ampicillin was added to a final concentration of 50 μg/ml and the cells were grown overnight at 20° C.
Cell pellets (3 L) were lysed for purification to yield 15-24 mgs of purified NS5B. The lysis buffer consisted of 20 mM Tris-HCl, pH 7.4, 500 mM NaCl, 0.5% triton X-100, 1 mM DTT, 1 mM EDTA, 20% glycerol, 0.5 mg/ml lysozyme, 10 mM MgCl2, 15 ug/ml deoxyribonuclease I, and Complete TM protease inhibitor tablets (Roche). After addition of the lysis buffer, frozen cell pellets were resuspended using a tissue homogenizer. To reduce the viscosity of the sample, aliquots of the lysate were sonicated on ice using a microtip attached to a Branson sonicator. The sonicated lysate was centrifuged at 100,000×g for 1 hr at 4° C. and filtered through a 0.2 μm filter unit (Corning).
The protein was purified using two sequential chromatography steps: Heparin sepharose CL-6B and polyU sepharose 4B (Pharmacia). The chromatography buffers were identical to the lysis buffer but contained no lysozyme, deoxyribonuclease I, MgCl2 or protease inhibitor and the NaCl concentration of the buffer was adjusted according to the requirements for charging the protein onto the column. Each column was eluted with a NaCl gradient which varied in length from 5-50 column volumes depending on the column type. After the final chromatography step, the resulting purity of the enzyme is >90% based on SDS-PAGE analysis. The enzyme was aliquoted and stored at −80° C.
Standard HCV NS5B RdRp enzyme assay. HCV RdRp genotype 1b assays were run in a final volume of 60 μl in 96 well plates (Corning 3600). The assay buffer is composed of 20 mM Hepes, pH 7.5, 2.5 mM KCl, 2.5 mM MgCl2, 1 mM DTT, 1.6 U RNAse inhibitor (Promega N2515), 0.01 mg/ml BSA (Sigma B6917), and 2% glycerol. All compounds were serially diluted (3-fold) in DMSO and diluted further in water such that the final concentration of DMSO in the assay was 2%. HCV RdRp genotype 1b enzyme was used at a final concentration of 28 nM. A polyA template was used at 6 nM, and a biotinylated oligo-dT12 primer was used at 180 nM final concentration. Template was obtained commercially (Amersham 27-4110). Biotinylated primer was prepared by Sigma Genosys. 3H-UTP was used at 0.6 μCi (0.29 μM total UTP). Reactions were initiated by the addition of enzyme, incubated at 30 ° C. for 60 min, and stopped by adding 25 μl of 50 mM EDTA containing SPA beads (4 μg/μl, Amersham RPNQ 0007). Plates were read on a Packard Top Count NXT after >1 hr incubation at room temperature.
Modified HCV NS5B RdRp enzyme assay. A modified enzyme assay was performed essentially as described for the standard enzyme assay except for the following: The biotinylated oligo dT12 primer was precaptured on streptavidin-coated SPA beads by mixing primer and beads in assay buffer and incubating at room temperature for one hour. Unbound primer was removed after centrifugation. The primer-bound beads were resuspended in 20 mM Hepes buffer, pH 7.5 and used in the assay at final concentrations of 20 nM primer and 0.67 μg/μl beads. Order of addition in the assay: enzyme (1.75 nM) was added to diluted compound followed by the addition of a mixture of template (0.36 nM), 3H-UTP (0.6 μCi, 0.29 μM), and primer-bound beads, to initiate the reaction; concentrations given are final. Reactions were allowed to proceed for 4 hours at 30° C.
IC50 values for compounds were determined using seven different [I]. […]

HCV replicon cells = assay: HCV replicon FRET / luciferase assay; type: cell-based; details: Hepatitis C virus, 50% reduction in FRET or luciferase activity in HCV replicon cells; read-out: EC50
Description: FRET Assay Preparation. The HCV FRET screening assay was performed in 96-well cell culture plates. The FRET peptide (Anaspec, Inc.) (Taliani et al., Anal. Biochem. 1996, 240, 60-67) contains a fluorescence donor, EDANS, near one end of the peptide and an acceptor, DABCYL, near the other end. The fluorescence of the peptide is quenched by […] resonance energy transfer (RET) between the donor and the acceptor, but as the NS3 protease cleaves the peptide the products are released from RET quenching and the fluorescence of the donor becomes apparent. The assay reagent was made as follows: 5× cell Luciferase cell culture lysis reagent from Promega (#E153A) diluted to 1× with dH2O, NaCl added to 150 mM final, the FRET peptide diluted to 20 μM final from a 2 mM stock.
To prepare plates, HCV replicon cells, with or without a Renilla luciferase reporter gene, were trypsinized and plated in a 96-well plate with titrated test compounds added in columns 3 through 12; columns 1 and 2 contained a control compound (HCV control inhibitor), and the bottom row contained cells with DMSO only. The plates were then placed in a CO2 incubator at 37° C.
Assays. Subsequent to addition of the test compounds described above (FRET Assay Preparation), at various times the plate was removed and Alamar blue solution (Trek Diagnostics, #00-100) was added to measure cellular toxicity. After reading in a Cytoflour 4000 instrument (PE Biosystems), plates were rinsed with PBS and then used for FRET assay by the addition of 30 ul of the FRET peptide assay reagent described above (FRET Assay Preparation) per well. The plate was then placed into the Cytoflour 4000 instrument which had been set to 340 excite/490 emission, automatic mode for up to 20 cycles and the plate read in a kinetic mode. Typically, the signal to noise using an endpoint analysis after the reads was at least three-fold. Alternatively, after Alamar blue reading, plates were rinsed with PBS, then used for luciferase assay using the Promega Dual-Glo Luciferase Assay System or the Promega EnduRen Live Cell Substrate assay.
Compound analysis was performed by quantification of the relative HCV replicon inhibition and the relative cytotoxicity values. To calculate cytoxicity values, the average Alamar Blue fluorescence signals from the control wells were set as 100% non-toxic. The individual signals in each of the compound test wells were then divided by the average control signal and multiplied by 100% to determine […]. To calculate the HCV replicon inhibition values, an average background value was obtained from the two wells containing the highest amount of HCV control inhibitor at the end of the assay period. These numbers were similar to those obtained from naïve Huh-7 cells. The background numbers were then subtracted from the average signal obtained from the control wells and this number was used as 100% activity. The individual signals in each of the compound test wells were then divided by the averaged control values after background subtraction and multiplied by 100% to determine percent activity. EC50 values were calculated as the concentration which caused a 50% reduction in FRET or luciferase activity. The two numbers generated for the compound plate, percent cytoxicity and percent activity, were used to determine compounds of interest for further analysis.

T1 sequence (Q9WMX2 2420-2992): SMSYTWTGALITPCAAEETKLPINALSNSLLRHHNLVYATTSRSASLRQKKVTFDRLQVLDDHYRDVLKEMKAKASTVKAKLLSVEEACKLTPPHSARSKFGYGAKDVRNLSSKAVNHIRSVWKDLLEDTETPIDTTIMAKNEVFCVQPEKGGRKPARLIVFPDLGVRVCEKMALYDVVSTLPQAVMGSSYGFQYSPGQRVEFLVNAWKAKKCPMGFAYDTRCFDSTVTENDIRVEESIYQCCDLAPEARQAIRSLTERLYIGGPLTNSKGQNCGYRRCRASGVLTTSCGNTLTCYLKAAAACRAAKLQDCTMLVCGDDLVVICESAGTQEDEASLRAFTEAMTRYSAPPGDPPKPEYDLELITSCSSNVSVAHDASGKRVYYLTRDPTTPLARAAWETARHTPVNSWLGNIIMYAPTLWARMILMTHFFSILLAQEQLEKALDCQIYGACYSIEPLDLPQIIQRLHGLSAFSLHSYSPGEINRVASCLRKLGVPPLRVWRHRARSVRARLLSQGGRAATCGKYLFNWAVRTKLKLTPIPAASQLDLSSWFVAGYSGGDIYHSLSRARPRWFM

SMILES | IC50 (HCV NS5B) [nM] | EC50 (HCV replicon cells) [nM]
COc1ccc2c(c1)C1CC1(C(=O)N1[C@@H]3CNC[C@H]1C3)Cn1c-2c(C2CCCCC2)c2ccc(C(=O)NS(=O)(=O)N(C)C)cc21 (some centres unmarked) | 2.4 to 500 | 2.4 to 500
COc1ccc2c(c1)C1CC1(C(=O)N1[C@@H]3C[C@H]1CN(C)C3)Cn1c-2c(C2CCCCC2)c2ccc(C(=O)NS(=O)(=O)N(C)C)cc21 (some centres unmarked) | 2.4 to 500 | 2.4 to 500
COc1ccc2c(c1)C1CC1(C(=O)N1CC3CC(C1)c1cccc(=O)n1C3)Cn1c-2c(C2CCCCC2)c2ccc(C(=O)NS(=O)(=O)N(C)C)cc21 (centres unmarked) | 2.4 to 500 | 2.4 to 500
COc1ccc2c(c1)C1CC1(C(=O)N1CCN3CCC1CC3)Cn1c-2c(C2CCCCC2)c2ccc(C(=O)NS(=O)(=O)N(C)C)cc21 (centres unmarked) | 2.4 to 500 | 2.4 to 500
COc1ccc2c(c1)C1CC1(C(=O)N1C3CC1CN(Cc1ccccc1)C3)Cn1c-2c(C2CCCCC2)c2ccc(C(=O)NS(=O)(=O)CC(F)(F)F)cc21 (centres unmarked) | 2.4 to 500 | 500 to 5000
COc1ccc2c(c1)C1CC1(C(=O)N1C3CC1CN(Cc1ccccc1)C3)Cn1c-2c(C2CCCCC2)c2ccc(C(=O)NS(=O)(=O)CCC(F)(F)F)cc21 (centres unmarked) | 2.4 to 500 | 500 to 5000
COc1ccc2c(c1)C1CC1(C(=O)N1C3CC1CN(Cc1ccccc1)C3)Cn1c-2c(C2CCCCC2)c2ccc(C(=O)NS(=O)(=O)C3CCC3)cc21 (centres unmarked) | 2.4 to 500 | 500 to 5000
CCC(C)S(=O)(=O)NC(=O)c1ccc2c(C3CCCCC3)c3n(c2c1)CC1(C(=O)N2CC4CCC2CN4)CC1c1cc(OC)ccc1-3 (centres unmarked) | 2.4 to 500 | 500 to 5000
COc1ccc2c(c1)C1CC1(C(=O)N1CC3CCC1CN3)Cn1c-2c(C2CCCCC2)c2ccc(C(=O)NS(=O)(=O)CC(C)C)cc21 (centres unmarked) | 2.4 to 500 | > 1000
COc1ccc2c(c1)C1CC1(C(=O)N1CC3CCC1CN3)Cn1c-2c(C2CCCCC2)c2ccc(C(=O)NS(=O)(=O)C3CCCC3)cc21 (centres unmarked) | 2.4 to 500 | > 1000
COc1ccc2c(c1)C1CC1(C(=O)N1CC3CCC1CN3)Cn1c-2c(C2CCCCC2)c2ccc(C(=O)NS(=O)(=O)CC(F)(F)F)cc21 (centres unmarked) | 2.4 to 500 | > 1000
COc1ccc2c(c1)C1CC1(C(=O)N1CC3CCC1CN3)Cn1c-2c(C2CCCCC2)c2ccc(C(=O)NS(=O)(=O)CCC(F)(F)F)cc21 (centres unmarked) | 2.4 to 500 | > 1000
COc1ccc2c(c1)C1CC1(C(=O)N1CC3CCC1CN3)Cn1c-2c(C2CCCCC2)c2ccc(C(=O)NS(=O)(=O)C3CCCCC3)cc21 (centres unmarked) | 2.4 to 500 | > 1000
COc1ccc2c(c1)C1CC1(C(=O)N1CC3CCC1CN3)Cn1c-2c(C2CCCCC2)c2ccc(C(=O)NS(=O)(=O)C3CCC3)cc21 (centres unmarked) | 2.4 to 500 | 2.4 to 500
COc1ccc2c(c1)C1CC1(C(=O)N1C3CC1CN(C)C3)Cn1c-2c(C2CCCCC2)c2ccc(C(=O)NS(=O)(=O)CCCF)cc21 (centres unmarked) | 2.4 to 500 | 2.4 to 500
COc1ccc2c(c1)C1CC1(C(=O)N1C3CC1CN(C)C3)Cn1c-2c(C2CCCCC2)c2ccc(C(=O)NS(=O)(=O)CC(F)F)cc21 (centres unmarked) | 2.4 to 500 | 2.4 to 500
COc1ccc2c(c1)C1CC1(C(=O)N1C3CC1CN(Cc1ccccc1)C3)Cn1c-2c(C2CCCCC2)c2ccc(C(=O)NS(=O)(=O)C(C)C)cc21 (centres unmarked) | 2.4 to 500 | 2.4 to 500
COc1ccc2c(c1)[C@@H]1C[C@]1(C(=O)N1CC3CCC1CN3C)Cn1c-2c(C2CCCCC2)c2ccc(C(=O)NS(=O)(=O)N(C)C)cc21 (some centres unmarked) | 2.4 to 500 | 2.4 to 500
COc1ccc2c(c1)[C@@H]1C[C@]1(C(=O)N1CCC3CCC(C1)N3C)Cn1c-2c(C2CCCCC2)c2ccc(C(=O)NS(=O)(=O)N(C)C)cc21 (some centres unmarked) | 2.4 to 500 | 2.4 to 500
COc1ccc2c(c1)C1CC1(C(=O)N1CC3COCC(C1)N3)Cn1c-2c(C2CCCCC2)c2ccc(C(=O)NS(=O)(=O)N(C)C)cc21 (centres unmarked) | 2.4 to 500 | 2.4 to 500
COc1ccc2c(c1)[C@@H]1C[C@]1(C(=O)N1C3CCCC1CN(C)C3)Cn1c-2c(C2CCCCC2)c2ccc(C(=O)NS(=O)(=O)N(C)C)cc21 | 2.4 to 500 | 2.4 to 500
COc1ccc2c(c1)C1CC1(C(=O)N1CC3COCC(C1)N3C)Cn1c-2c(C2CCCCC2)c2ccc(C(=O)NS(=O)(=O)N(C)C)cc21 (centres unmarked) | 2.4 to 500 | 2.4 to 500
COc1ccc2c(c1)[C@@H]1C[C@]1(C(=O)N1C3CCCC1C(=O)N(C)C3=O)Cn1c-2c(C2CCCCC2)c2ccc(C(=O)NS(=O)(=O)N(C)C)cc21 | 2.4 to 500 | 2.4 to 500
COc1ccc2c(c1)C1CC1(C(=O)N1C3CCCC1CN(C)C3)Cn1c-2c(C2CCCCC2)c2ccc(C(=O)NS(=O)(=O)C(C)C)cc21 (centres unmarked) | 2.4 to 500 | 2.4 to 500
COc1ccc2c(c1)C1CC1(C(=O)N1C3COCC1CN(C(C)C)C3)Cn1c-2c(C2CCCCC2)c2ccc(C(=O)NS(=O)(=O)N(C)C)cc21 (centres unmarked) | 2.4 to 500 | 2.4 to 500
COc1ccc2c(c1)C1CC1(C(=O)N1C3COCC1CN(C(C)=O)C3)Cn1c-2c(C2CCCCC2)c2ccc(C(=O)NS(=O)(=O)N(C)C)cc21 (centres unmarked) | 2.4 to 500 | 2.4 to 500
COc1ccc2c(c1)C1CC1(C(=O)N1C3CCCC1CN(C)C3)Cn1c-2c(C2CCCCC2)c2ccc(C(=O)NS(C)(=O)=O)cc21 (centres unmarked) | 2.4 to 500 | 2.4 to 500
COc1ccc2c(c1)C1CC1(C(=O)N1C3CCCC1CN(C)C3)Cn1c-2c(C2CCCCC2)c2ccc(C(=O)NS(=O)(=O)C3CC3)cc21 (centres unmarked) | 2.4 to 500 | 2.4 to 500

From US7547690B2, “Compounds for the treatment of Hepatitis C” (Bristol-Myers Squibb Company, priority 2007, dated 2009)
